Data: patent US11292781B2, “Pyrimidine tricyclic enone derivatives for inhibition of ROR-gamma and other uses” (REATA PHARMACEUTICALS, INC., priority 2016, dated 2022)

Tested on: Nrf2 transcription factor (GST ARE luciferase reporter in AREc32 cells)
Assay: AREc32 luciferase reporter assay
Format: cell-based, human
Conditions: EC2×: concentration required to increase GST ARE luciferase reporter activity by 2-fold, 19 hours
Excerpt: A. AREc32 Luciferase Reporter Assay The AREc32 luciferase reporter assay allows for quantitative assessment of the endogenous activity of the Nrf2 transcription factor in cultured mammalian cells. AREc32 cells are derived from MCF-7 human breast carcinoma cells that were stably transfected with a reporter construct that contains the firefly luciferase gene located downstream of eight copies of the rat GSTA2 antioxidant response element (ARE) sequence (Wang et al., 2006; CXR Biosciences). Active NRF2 binds to the ARE sequences and increases expression of the firefly luciferase gene. […] Luciferase activity was determined using the ONE-Glo Luciferase assay (Promega). The luminescence signal was measured on a BMG Pherastar microplate reader. The mean luminescence value from test compound-treated wells was normalized to that from DMSO-treated wells and was represented as fold-induction. Data were analyzed using GraphPad Prism version 6.00 for Windows, GraphPad Software, La Jolla Calif. USA. A non-linear regression curve with log (agonist) vs. response using a variable slope was used to fit the data. […] EC2× values were interpolated from the curve.

C[C@H]1C(=O)C(C#N)=C[C@@]2(C)c3nc(NC(=O)C4CCCCC4)nc(-c4ccccc4)c3CC[C@H]12 [T35]
HRF2 ARE 2×: 575 nM

C[C@H]1C(=O)C(C#N)=C[C@@]2(C)c3nc(-c4ccncc4)nc(Cc4ccccc4)c3CC[C@H]12 [T36]
HRF2 ARE 2×: 484 nM

C[C@H]1C(=O)C(C#N)=C[C@@]2(C)c3nc(-c4ccnc5ccccc45)nc(-c4ccccc4F)c3CC[C@H]12 [T37]
HRF2 ARE 2×: 351 nM

Cc1cc(-c2nc(-c3ccc(F)cc3)c3c(n2)[C@]2(C)C=C(C#N)C(=O)[C@H](C)[C@H]2CC3)ccn1 [T50]
HRF2 ARE 2×: 256 nM

Cc1cc(-c2nc(-c3ccccc3F)c3c(n2)[C@]2(C)C=C(C#N)C(=O)[C@H](C)[C@H]2CC3)ccn1 [T51]
HRF2 ARE 2×: 364 nM

Cc1cnccc1-c1nc(-c2ccccc2F)c2c(n1)[C@]1(C)C=C(C#N)C(=O)[C@H](C)[C@H]1CC2 [T56]
HRF2 ARE 2×: 193 nM

C[C@H]1C(=O)C(C#N)=C[C@@]2(C)c3nc(-c4ccc5ncccc5c4)nc(-c4ccccc4F)c3CC[C@H]12 [T60]
HRF2 ARE 2×: 380 nM

C[C@H]1C(=O)C(C#N)=C[C@@]2(C)c3nc(-c4cn(C)c5ncccc45)nc(-c4ccccc4F)c3CC[C@H]12 [T72]
HRF2 ARE 2×: 374 nM

C[C@H]1C(=O)C(C#N)=C[C@@]2(C)c3nc(-c4ccccc4F)nc(-c4ccccc4F)c3CC[C@H]12 [T81]
HRF2 ARE 2×: 705 nM

C[C@H]1C(=O)C(C#N)=C[C@@]2(C)c3nc(-c4ccnc(CO)c4)nc(-c4ccccc4F)c3CC[C@H]12 [T82]
HRF2 ARE 2×: 480 nM

C[C@H]1C(=O)C(C#N)=C[C@@]2(C)c3nc(-c4ccnc(CF)c4)nc(-c4ccccc4F)c3CC[C@H]12 [T83]
HRF2 ARE 2×: 484 nM

Cc1ccc(-c2nc(-c3ccccc3F)c3c(n2)[C@]2(C)C=C(C#N)C(=O)[C@H](C)[C@H]2CC3)cn1 [T88]
HRF2 ARE 2×: 177 nM

C[C@H]1C(=O)C(C#N)=C[C@@]2(C)c3nc(N4CCN(C)CC4)nc(-c4ccccc4F)c3CC[C@H]12 [T91]
HRF2 ARE 2×: 552 nM

C[C@H]1C(=O)C(C#N)=C[C@@]2(C)c3nc(N4CCOCC4)nc(-c4ccccc4F)c3CC[C@H]12 [T92]
HRF2 ARE 2×: 491 nM

CC1(C)C(=O)C(C#N)=C[C@@]2(C)c3nc(-c4ccnc5ccccc45)nc(-c4ccccc4F)c3CC[C@H]12 [T118]
HRF2 ARE 2×: 395 nM

CC1=C2CCc3c(-c4ccccc4F)nc(-c4ccnc5c(F)cccc45)nc3[C@]2(C)C=C(C#N)C1=O [T128]
HRF2 ARE 2×: 1385 nM

C[C@H]1C(=O)[C@@]2(C#N)O[C@H]2[C@@]2(C)c3nc(-c4ccnc5cc(F)ccc45)nc(-c4ccccc4F)c3CC[C@H]12 [T129]
HRF2 ARE 2×: 697 nM

C[C@H]1C(=O)[C@@]2(C#N)O[C@H]2[C@@]2(C)c3nc(-c4ccnc(C5CC5)c4)nc(-c4ccccc4F)c3CC[C@H]12 [T130]
HRF2 ARE 2×: 692 nM

CC1(C)C(=O)[C@@]2(C#N)O[C@H]2[C@@]2(C)c3nc(-c4ccnc5ccccc45)nc(-c4ccccc4F)c3CC[C@H]12 [T133]
HRF2 ARE 2×: 1199 nM

COc1nc(-c2ccncc2)nc2c1CC[C@@H]1[C@@H](C)C(=O)C=C[C@@]21C [T134]
HRF2 ARE 2×: 3137 nM

COC(=O)[C@@]1(C)C(=O)C=C[C@@]2(C)c3nc(-c4ccncc4)nc(OC)c3CC[C@H]12 [T135]
HRF2 ARE 2×: >2000 nM

CC(=O)N1CCN(c2nc(-c3ccccc3F)c3c(n2)[C@]2(C)C=C(C#N)C(=O)[C@H](C)[C@H]2CC3)CC1 [T139]
HRF2 ARE 2×: 222 nM

C=CC[C@H]1C(=O)C(C#N)=C[C@@]2(C)c3nc(-c4ccnc(C5CC5)c4)nc(-c4ccccc4F)c3CC[C@H]12 [T145]
HRF2 ARE 2×: 337 nM

CCC[C@H]1C(=O)C(C#N)=C[C@@]2(C)c3nc(-c4ccnc(C5CC5)c4)nc(-c4ccccc4F)c3CC[C@H]12 [T146]
HRF2 ARE 2×: 447 nM

C[C@H]1C(=O)C(C#N)=C[C@@]2(c3ccccc3)c3nc(-c4ccnc(C5CC5)c4)nc(-c4ccccc4F)c3CC[C@H]12 [T147]
HRF2 ARE 2×: >2000 nM

CCC[C@H]1C(=O)C(C#N)=C[C@@]2(C)c3nc(-c4ccnc5ccccc45)nc(-c4ccccc4F)c3CC[C@H]12 [T158]
HRF2 ARE 2×: 315 nM

CC(C)c1ccc(-c2nc(-c3ccnc4ccccc34)nc3c2CC[C@@H]2[C@@H](C)C(=O)C(C#N)=C[C@@]32C)cc1 [T161]
HRF2 ARE 2×: 158 nM

C[C@H]1C(=O)C(C#N)=C[C@@]2(C)c3nc(-c4ccnc5ccccc45)nc(-c4ccc(-c5ccccc5)cc4)c3CC[C@H]12 [T163]
HRF2 ARE 2×: 312 nM

CCC[C@@]12C=C(C#N)C(=O)[C@H](C)[C@H]1CCc1c(-c3ccccc3F)nc(-c3ccnc(C4CC4)c3)nc12 [T169]
HRF2 ARE 2×: 540 nM

C[C@H]1C(=O)C(C#N)=C[C@@]2(C)c3nc(-c4ccnc5ccccc45)nc(-c4ccccc4F)c3C[C@H]12 [T170]
HRF2 ARE 2×: 1222 nM

C[C@H]1C(=O)C(C#N)=C[C@@]2(C)c3nc(-c4ccnc(CF)c4)nc(-c4ccccc4F)c3C[C@H]12 [T171]
HRF2 ARE 2×: 1474 nM

Cc1cc(-c2nc(-c3ccccc3F)c3c(n2)[C@]2(C)C=C(C#N)C(=O)[C@H](C)[C@H]2C3)c2cccc(F)c2n1 [T172]
HRF2 ARE 2×: 998 nM

C[C@H]1C(=O)C(C#N)=C[C@@]2(C)c3nc(-c4cccc5ncccc45)nc(-c4ccccc4F)c3C[C@H]12 [T173]
HRF2 ARE 2×: >2000 nM

C[C@H]1C(=O)C(C#N)=C[C@@]2(C)c3nc(-c4ccnc(C5CC5)c4)nc(-c4ccccc4F)c3C[C@H]12 [T174]
HRF2 ARE 2×: >2000 nM

C[C@H]1C(=O)C(C#N)=C[C@@]2(C)c3nc(-c4ccnc(CCC(N)=O)c4)nc(-c4ccccc4F)c3CC[C@H]12 [T177]
HRF2 ARE 2×: 491 nM

CC[C@@]1(C)C(=O)C(C#N)=C[C@@]2(C)c3nc(-c4ccnc(C5CC5)c4)nc(-c4ccccc4F)c3CC[C@H]12 [T181]
HRF2 ARE 2×: 518 nM

Cc1cc(-c2nc(-c3ccccc3)c3c(n2)[C@]2(C)C=C(C#N)C(=O)[C@H](C)[C@H]2CCC3)ccn1 [T182]
HRF2 ARE 2×: 892 nM

Cc1cc(-c2nc(-c3ccc(F)cc3)c3c(n2)[C@]2(C)C=C(C(N)=O)C(=O)[C@H](C)[C@H]2CC3)ccn1 [T184]
HRF2 ARE 2×: 1832 nM

Cc1cc(-c2nc(-c3ccc(F)cc3)c3c(n2)[C@]2(C)CC(C#N)C(=O)[C@H](C)[C@H]2CC3)ccn1 (stereo partly drawn) [T187]
HRF2 ARE 2×: >2000 nM
